Test results taken from article PMC4809600, “The Influence of Chronic Wound Extracts on Inflammatory Cytokine and Histatin Stability” (PLoS ONE, 2016).
Where no end group is shown, it is not given here.

Assays:
[1] = Stability in chronic wound extracts (CWE), capillary zone electrophoresis; format: in vitro ADME, human; settings: 37°C, CZE; for Percentage intact, CWE 2h / Percentage intact, CWE 4h / Percentage intact, CWE 8h / Percentage intact, CWE 16h / Percentage intact, CWE 24h / Percentage intact, CWE 48h / Percentage intact, CWE 72h / Percentage intact, CWE 96h: 1 mg/ml in PBS mixed 1:1 with CWE (1 mg/ml protein, pool of 5 donors) in PBS, UV 200 nm, ratio to imidazole
Outline: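 Peptides or cytokines (1 mg/ml stock) mixed 1:1 with PBS or pooled chronic-wound extract (1 mg/ml protein, three pools of five donors), ±protease inhibitor cocktail, at 37 °C for up to 96 h. Analyzed by capillary zone electrophoresis (pH 2.5 phosphate, 200 nm), with peak ratio to imidazole standard relative to 0 h as % intact.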

[2] = Stability in CWE with protease inhibitor cocktail (PIC), capillary zone electrophoresis; format: in vitro ADME, human; settings: 1 mg/ml in PBS mixed 1:1 with CWE (1 mg/ml protein, pool of 5 donors) in PBS containing PIC (final 1:140 v/v), 37°C, CZE, ratio to imidazole, 0 h = 100%
Description: Debridement tissue was obtained from chronic ulcers of 15 patients with therapy resistant (arterio-venous) leg ulcers, according to procedures described earlier. In brief, moist, easily removable debridement material, essentially blood free, was collected from the ulcer surface and divided equally into two different solutions: (i) PBS (B. Braun, Melsungen, Germany), (ii) PBS with protease inhibitor cocktail (PIC) (1:100; v/v) (Sigma-Aldrich, Steinheim, Germany). The mixtures were gently shaken for 1 h at 4°C to elute proteins and centrifuged; the supernatants were stored at -80°C. Total protein content of the supernatant was measured using the BioRad Protein Assay (BioRad Laboratories, Hercules, California, USA) essentially as described by the supplier. Samples were diluted to 1 mg/ml protein and extracts of five different donors were pooled; three different pools of five donors were used in all experiments. The samples are referred to as chronic wound extracts (CWE).
To determine the stability of the different peptides in CWE, histatins and cytokines were dissolved in PBS at 1 mg/ml. Histatins and cytokines were incubated in a 1:1 ratio with (i) PBS, (ii) CWE in PBS, or (iii) CWE in PBS containing PIC, in a total volume of 25 μl. Imidazole (Sigma-Aldrich) was added as an internal standard, with a final concentration of 100 μg/ml. The mixtures were incubated at 37°C, and samples were taken at 0, 24, 48, 72 and 96 h. For histatins containing mixtures, additional samples were taken after 2, 4, 8 and 16 h of incubation.
The samples were analyzed with a BioFocus 2000 capillary zone electrophoresis system (Bio-Rad Laboratories, Hercules, CA, USA) equipped with an uncoated fused-silica capillary of internal diameter 50 μm and a length of 24 cm. Samples were loaded by pressure injection (5 psi/sec). Separation was performed at 10 kV (cathode at the detector side) at 20°C using 0.1 M phosphate buffer (pH 2.5) as electrolyte and monitored continuously at 200 nm. Peaks were quantified with the BioFocus Integrator software. In order to quantify the percentage of intact peptides remaining after incubation with CWE, the ratios of histatins, rhIL-6 or rhCXCL8 to internal standard was set at 100% at 0h, and the ratios at the other incubation time points were related to this.

Sequence: DSHEKRHHGYRRKFHEKHHSHREFPFYGDYGSNYLYDN [Hst1]
- Percentage intact, CWE 2h ([1]; 0 h = 100%, experiment 1 of 3): 83.2738%
- Percentage intact, CWE 2h ([1]; 0 h = 100%, experiment 2 of 3): 87.1828%
- Percentage intact, CWE 2h ([1]; 0 h = 100%, experiment 3 of 3): 86.6201%
- Percentage intact, CWE 4h ([1]; 0 h = 100%, experiment 1 of 3): 58.4193%
- Percentage intact, CWE 4h ([1]; 0 h = 100%, experiment 2 of 3): 76.5418%
- Percentage intact, CWE 4h ([1]; 0 h = 100%, experiment 3 of 3): 73.9107%
- Percentage intact, CWE 8h ([1]; 8 h, 0 h = 100%, experiment 1 of 3): 32.9227%
- Percentage intact, CWE 8h ([1]; 8 h, 0 h = 100%, experiment 2 of 3): 52.8031%
- Percentage intact, CWE 8h ([1]; 8 h, 0 h = 100%, experiment 3 of 3): 51.366%
- Percentage intact, CWE 16h ([1]; 0 h = 100%, experiment 1 of 3): 8.0136%
- Percentage intact, CWE 16h ([1]; 0 h = 100%, experiment 2 of 3): 20.767%
- Percentage intact, CWE 16h ([1]; 0 h = 100%, experiment 3 of 3): 27.1396%
- Percentage intact, CWE 24h ([1]; 24 h, 0 h = 100%, experiment 1 of 3): 1.592%
- Percentage intact, CWE 24h ([1]; 24 h, 0 h = 100%, experiment 2 of 3): 7.881%
- Percentage intact, CWE 24h ([1]; 24 h, 0 h = 100%, experiment 3 of 3): 13.5375%
- Percentage intact, CWE 48h ([1]; 0 h = 100%, experiment 1 of 3): 0.0001%
- Percentage intact, CWE 48h ([1]; 0 h = 100%, experiment 2 of 3): 0.0001%
- Percentage intact, CWE 48h ([1]; 0 h = 100%, experiment 3 of 3): 0.0001%
- Percentage intact, CWE 72h ([1]; 0 h = 100%, experiment 1 of 3): 0.0001%
- Percentage intact, CWE 72h ([1]; 0 h = 100%, experiment 2 of 3): 0.0001%
- Percentage intact, CWE 72h ([1]; 0 h = 100%, experiment 3 of 3): 0.0001%
- Percentage intact, CWE 96h ([1]; 0 h = 100%, experiment 1 of 3): 0.0001%
- Percentage intact, CWE 96h ([1]; 0 h = 100%, experiment 2 of 3): 0.0001%
- Percentage intact, CWE 96h ([1]; 0 h = 100%, experiment 3 of 3): 0.0001%
- remaining at 8 h, 0.5 mg/ml ([1]; human, chronic wound extracts (CWE), 1 mg/ml in PBS mixed 1:1 with CWE (1 mg/ml protein, pools of 5 donors), 8 h, 0 h = 100%, mean of 3 independent experiments, read-out: Original amount of peptide remaining intact after 8 h in CWE): 46%
- remaining at 24 h, 0.5 mg/ml ([1]; human, chronic wound extracts (CWE), 1 mg/ml in PBS mixed 1:1 with CWE (1 mg/ml protein, pools of 5 donors), 24 h, 0 h = 100%, mean of 3 independent experiments, read-out: Original amount of peptide remaining intact after 24 h in CWE): 8%
- metabolised at 8 h, 0.5 mg/ml ([1]; human, chronic wound extracts (CWE), incubation with chronic wound extracts, 8 h, read-out: Breakdown (degradation) in CWE in 8 h): ~50%
- Percentage intact, CWE + PIC 2h ([2]; experiment 1 of 3): 91.8564%
- Percentage intact, CWE + PIC 2h ([2]; experiment 2 of 3): 90.6434%
- Percentage intact, CWE + PIC 2h ([2]; experiment 3 of 3): 99.1023%
- Percentage intact, CWE + PIC 4h ([2]; experiment 1 of 3): 81.1086%
- Percentage intact, CWE + PIC 4h ([2]; experiment 2 of 3): 81.649%
- Percentage intact, CWE + PIC 4h ([2]; experiment 3 of 3): 84.0062%
- Percentage intact, CWE + PIC 8h ([2]; experiment 1 of 3): 76.5843%
- Percentage intact, CWE + PIC 8h ([2]; experiment 2 of 3): 75.4466%
- Percentage intact, CWE + PIC 8h ([2]; experiment 3 of 3): 82.0587%
- Percentage intact, CWE + PIC 16h ([2]; experiment 1 of 3): 72.2461%
- Percentage intact, CWE + PIC 16h ([2]; experiment 2 of 3): 65.5164%
- Percentage intact, CWE + PIC 16h ([2]; experiment 3 of 3): 70.9806%
- Percentage intact, CWE + PIC 24h ([2]; experiment 1 of 3): 78.4236%
- Percentage intact, CWE + PIC 24h ([2]; experiment 2 of 3): 69.711%
- Percentage intact, CWE + PIC 24h ([2]; experiment 3 of 3): 68.9989%
- Percentage intact, CWE + PIC 48h ([2]; experiment 1 of 3): 73.7424%
- Percentage intact, CWE + PIC 48h ([2]; experiment 2 of 3): 59.1893%
